The text below walks through data of article PMC6719666 (Acta Crystallographica. Section D, Structural Biology, 2019).

The target in this assay is T1, BcGDHγα (Burkholderia cepacia, UniProt Q8GQE7).
T1 construct: gene gdhAlpha; alpha (539 aa, 60 kDa) with C-terminal His tag; gamma 168 aa with signal peptide, mature 121 aa (13 kDa); pTrc99A, E. coli BL21(DE3); no beta-subunit; heterodimer; purified by Ni and cation exchange; with Glucose dehydrogenase gamma subunit (hitchhiker protein, small subunit)
T1 sequence (Q8GQE7 1-539): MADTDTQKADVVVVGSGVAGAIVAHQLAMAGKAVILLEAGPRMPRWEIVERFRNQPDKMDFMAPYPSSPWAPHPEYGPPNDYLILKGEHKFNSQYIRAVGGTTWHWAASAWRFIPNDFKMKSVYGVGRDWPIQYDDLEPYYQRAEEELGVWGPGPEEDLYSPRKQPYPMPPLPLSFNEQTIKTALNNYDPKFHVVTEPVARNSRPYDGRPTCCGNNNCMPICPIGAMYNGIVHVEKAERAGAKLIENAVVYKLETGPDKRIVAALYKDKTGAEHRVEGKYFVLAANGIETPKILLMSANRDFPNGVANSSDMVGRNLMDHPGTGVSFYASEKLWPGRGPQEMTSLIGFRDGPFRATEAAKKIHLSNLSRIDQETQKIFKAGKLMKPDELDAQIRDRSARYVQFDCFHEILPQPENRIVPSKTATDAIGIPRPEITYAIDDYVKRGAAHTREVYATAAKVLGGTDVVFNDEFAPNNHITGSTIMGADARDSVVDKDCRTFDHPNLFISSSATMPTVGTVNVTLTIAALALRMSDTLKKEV
T1 sequence (A0A0H3KLY3 48-168 partner): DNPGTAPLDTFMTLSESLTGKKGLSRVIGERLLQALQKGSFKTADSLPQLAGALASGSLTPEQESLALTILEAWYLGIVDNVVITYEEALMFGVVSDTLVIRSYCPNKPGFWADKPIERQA
The assay can be described thus: X-ray crystal structure, […] Å. In kind it is binding. The conditions noted are these: covalent; C8M of FAD to His105 of the alpha-subunit.

As to `Cc1cc2nc3c(=O)[nH]c(=O)nc-3n(C[C@H](O)[C@H](O)[C@H](O)COP(=O)(O)OP(=O)(O)OC[C@H]3O[C@@H](n4cnc5c(N)ncnc54)[C@H](O)[C@@H]3O)c2cc1C` [FAD], the “X-ray crystal structure, 2.6 Å” value was “a covalent bond was deemed to form between FAD and His105 in the α-subunit”.
